From patent US9765092B2, “Tricyclic piperidine compounds” (ACTELION PHARMACEUTICALS LTD, priority 2013, dated 2017)

target: human TPH1 (Homo sapiens (Human), UniProt P17752); assay: Biochemical in vitro assay using fluorescence readout (TPH1 inhibition); settings: full length human TPH1, 40 μM L-tryptophan, 15° C., 60 minutes, fluorescence at 540 nm; mean if determined several times
Sequence (P17752 whole entry): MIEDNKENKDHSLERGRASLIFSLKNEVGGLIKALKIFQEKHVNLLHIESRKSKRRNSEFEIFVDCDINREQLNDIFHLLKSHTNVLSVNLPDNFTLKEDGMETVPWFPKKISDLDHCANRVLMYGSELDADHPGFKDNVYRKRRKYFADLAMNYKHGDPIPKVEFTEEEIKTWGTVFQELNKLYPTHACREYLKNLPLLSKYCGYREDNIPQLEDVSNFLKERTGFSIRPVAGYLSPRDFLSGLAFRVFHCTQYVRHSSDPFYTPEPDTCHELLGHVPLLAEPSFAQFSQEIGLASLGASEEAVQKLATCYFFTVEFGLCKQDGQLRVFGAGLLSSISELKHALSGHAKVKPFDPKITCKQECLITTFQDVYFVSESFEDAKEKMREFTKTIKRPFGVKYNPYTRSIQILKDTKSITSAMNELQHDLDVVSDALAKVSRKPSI

Molecule | IC50
Cc1nn2c3c(nc2s1)CCN(C(=O)COc1ccc(C(F)(F)F)cc1Cl)C3c1cnc(N(C)C)s1 (centres unmarked) [Example 1.22.5, 2-(2-Chloro-4-(trifluoromethyl)phenoxy)-1-(5-(2-(dimethylamino)thiazol-5-yl)-2-methyl-7,8-dihydro-[1,3,4]thiadiazolo[2′,3′:2,3]imidazo[4,5-c]pyridin-6(5H)-yl)ethanone] | 0.13 µM
CNc1ccc(OCC(=O)N2CCc3nc4sc(C)nn4c3C2c2ccc(Cl)cc2F)c(Cl)n1 (centres unmarked) [Example 1.4.27, 1-(5-(4-Chloro-2-fluorophenyl)-2-methyl-7,8-dihydro-[1,3,4]thiadiazolo[2′,3′:2,3]imidazo[4,5-c]pyridin-6(5H)-yl)-2-((2-chloro-6-(methylamino)pyridin-3-yl)oxy)ethanone] | 0.006 µM

same assay, conditions: human TPH1, fluorescence readout

Molecule | IC50
CCc1nn2c3c(nc2s1)CCN(C(=O)COc1ccc(C#N)cc1Cl)C3c1ccc(Cl)cc1F (centres unmarked) [Example 3.1.2, 3-chloro-4-(2-(5-(4-chloro-2-fluorophenyl)-2-ethyl-7,8-dihydro-[1,3,4]thiadiazolo[2′,3′:2,3]imidazo[4,5-c]pyridin-6(5H)-yl)-2-oxoethoxy)benzonitrile] | 0.015 µM
Cc1nn2c3c(nc2s1)CCN(C(=O)COc1ccc(NS(C)(=O)=O)nc1Cl)C3c1ccc(OC(F)(F)F)cc1F (centres unmarked) [Example 1.77.1, N-(6-chloro-5-(2-(5-(2-fluoro-4-(trifluoromethoxy)phenyl)-2-methyl-7,8-dihydro-[1,3,4]thiadiazolo[2′,3′:2,3]imidazo[4,5-c]pyridin-6(5H)-yl)-2-oxoethoxy)pyridin-2-yl)methanesulfonamide] | 0.013 µM
Cc1nc(C)c(C2c3c(nc4sc(C)nn34)CCN2C(=O)COc2ccc(N3CCCS3(=O)=O)nc2Cl)s1 (centres unmarked) [Example 1.68.5, 2-((2-chloro-6-(1,1-dioxidoisothiazolidin-2-yl)pyridin-3-yl)oxy)-1-(5-(2,4-dimethylthiazol-5-yl)-2-methyl-7,8-dihydro-[1,3,4]thiadiazolo[2′,3′:2,3]imidazo[4,5-c]pyridin-6(5H)-yl)ethanone] | 0.005 µM
CS(=O)(=O)Nc1ccc(OCC(=O)N2CCc3nc4sc(C(F)(F)F)nn4c3C2c2ccc(Cl)cc2F)c(Cl)n1 (centres unmarked) [Example 5.1.1, N-(6-chloro-5-(2-(5-(4-chloro-2-fluorophenyl)-2-(trifluoromethyl)-7,8-dihydro-[1,3,4]thiadiazolo-[2′,3′:2,3]imidazo[4,5-c]pyridin-6(5H)-yl)-2-oxoethoxy)pyridin-2-yl)methanesulfonamide] | 0.05 µM
Cc1nn2c3c(nc2s1)CCN(C(=O)COc1ccc(C(=O)N(C)C)nc1Cl)[C@H]3c1sc(C(=O)N(C)C)cc1F [Example 1.24.11] | 0.004 µM
CCc1nn2c3c(nc2s1)CCN(C(=O)COc1ccc(-c2ncco2)nc1Cl)C3c1ccc(Cl)cc1F (centres unmarked) [Example 3.1.3, 1-(5-(4-chloro-2-fluorophenyl)-2-ethyl-7,8-dihydro-[1,3,4]thiadiazolo[2′,3′:2,3]imidazo[4,5-c]pyridin-6(5H)-yl)-2-((2-chloro-6-(oxazol-2-yl)pyridin-3-yl)oxy)ethanone] | 0.012 µM
O=C(COc1ccc(CN2CCOCC2)cc1Cl)N1CCc2nc3sccn3c2C1c1cnn(-c2ccccc2)c1 (centres unmarked) [Example 6.13.5, 2-(2-chloro-4-(morpholinomethyl)phenoxy)-1-(5-(1-phenyl-1H-pyrazol-4-yl)-7,8-dihydrothiazolo-[2′,3′:2,3]imidazo[4,5-c]pyridin-6(5H)-yl)ethanone] | 0.007 µM
Cc1nn2c3c(nc2s1)CCN(C(=O)COc1ccc(C(=O)N(C)C)nc1Cl)C3c1cccc(Cl)c1F (centres unmarked) [Example 1.58.1, 6-chloro-5-(2-(5-(3-chloro-2-fluorophenyl)-2-methyl-7,8-dihydro-[1,3,4]thiadiazolo[2′,3′:2,3]imidazo[4,5-c]pyridin-6(5H)-yl)-2-oxoethoxy)-N,N-dimethylpicolinamide] | 0.042 µM
COC(=O)c1ccc(OCC(=O)N2CCc3nc4sc(C)nn4c3C2c2ccc(Cl)cc2F)c(Cl)n1 (centres unmarked) [Example 1.4.8, Methyl 6-chloro-5-(2-(5-(4-chloro-2-fluorophenyl)-2-methyl-7,8-dihydro-[1,3,4]thiadiazolo[2′,3′:2,3]imidazo[4,5-c]pyridin-6(5H)-yl)-2-oxoethoxy)picolinate] | 0.032 µM
Cc1nn2c3c(nc2s1)CCN(C(=O)COc1cccc2c1ccn2C)C3c1ccc(Cl)cc1F (centres unmarked) [Example 1.4.62, 1-(5-(4-chloro-2-fluorophenyl)-2-methyl-7,8-dihydro-[1,3,4]thiadiazolo[2′,3′:2,3]imidazo[4,5-c]pyridin-6(5H)-yl)-2-((1-methyl-1H-indol-4-yl)oxy)ethan-1-one] | 0.015 µM
Cc1nn2c3c(nc2s1)CCN(C(=O)COc1ccc(NS(C)(=O)=O)nc1Cl)C3c1ccc(C)c(F)c1F (centres unmarked) [Example 1.61.2, N-(6-chloro-5-(2-(5-(2,3-difluoro-4-methylphenyl)-2-methyl-7,8-dihydro-[1,3,4]thiadiazolo[2′,3′:2,3]imidazo-[4,5-c]pyridin-6(5H)-yl)-2-oxoethoxy)pyridin-2-yl)methanesulfonamide] | 0.034 µM
CCc1cc(F)ccc1OCC(=O)N1CCc2nc3sccn3c2C1c1ccc(C)cc1F (centres unmarked) [Example 6.10.4, 2-(2-ethyl-4-fluorophenoxy)-1-(5-(2-fluoro-4-methyl-phenyl)-7,8-dihydrothiazolo[2′,3′:2,3]imidazo[4,5-c]-pyridin-6(5H)-yl)ethanone] | 0.006 µM
Cc1cnc(C2c3c(nc4sc(C)nn34)CCN2C(=O)COc2ccc(C(F)(F)F)cc2Cl)c(F)c1 (centres unmarked) [Example 1.31.1, 2-(2-chloro-4-(trifluoromethyl)phenoxy)-1-(5-(3-fluoro-5-methylpyridin-2-yl)-2-methyl-7,8-dihydro-[1,3,4]thiadiazolo [2′,3′:2,3]imidazo[4,5-c]pyridin-6(5H)-yl)ethanone] | 0.014 µM
Cc1nn2c3c(nc2s1)CCN(C(=O)COc1ccc(C(N)=O)nc1Cl)C3c1ncc(Cl)cc1F (centres unmarked) [Example 1.33.4, 6-chloro-5-(2-(5-(5-chloro-3-fluoropyridin-2-yl)-2-methyl-7,8-dihydro-[1,3,4]thiadiazolo[2′,3′:2,3]imidazo[4,5-c]pyridin-6(5H)-yl)-2-oxoethoxy)picolinamide] | 0.007 µM
Cc1nn2c3c(nc2s1)CCN(C(=O)C1(Oc2ccc(NS(C)(=O)=O)nc2Cl)CC1)C3c1ccc(Cl)cc1F (centres unmarked) [Example 1.4.54, N-(6-chloro-5-(1-(5-(4-chloro-2-fluorophenyl)-2-methyl-5,6,7,8-tetrahydro-[1,3,4]thiadiazolo[2′,3′:2,3]imidazo[4,5-c]pyridine-6-carbonyl)cyclopropoxy)pyridin-2-yl)methanesulfonamide] | 0.037 µM
Cc1nn2c3c(nc2s1)CCN(C(=O)COc1c(Cl)nc(N2CCOCC2)c(F)c1F)C3c1ncc(C2CC2)cc1F (centres unmarked) [Example 1.14.11, 2-((2-chloro-4,5-difluoro-6-morpholinopyridin-3-yl)oxy)-1-(5-(5-cyclopropyl-3-fluoropyridin-2-yl)-2-methyl-7,8-dihydro-[1,3,4]thiadiazolo[2′,3′:2,3]imidazo[4,5-c]pyridin-6(5H)-yl)ethanone] | 0.122 µM
Cc1ccc(C2c3c(nc4sc(C)nn34)CCN2C(=O)COc2ccc(C(=O)N(C)C3CC3)nc2Cl)c(F)c1 (centres unmarked) [Example 1.53.3, 6-chloro-N-cyclopropyl-5-(2-(5-(2-fluoro-4-methyl-phenyl)-2-methyl-7,8-dihydro-[1,3,4]thiadiazolo-[2′,3′:2,3]imidazo[4,5-c]pyridin-6(5H)-yl)-2-oxoethoxy)-N-methylpicolinamide] | 0.015 µM
N-(5-(2-(5-(4-(aminomethyl)-2-fluorophenyl)-2-methyl-7,8-dihydro-[1,3,4]thiadiazolo[2′,3′:2,3]imidazo[4,5-c]pyridin-6(5H)-yl)-2-oxoethoxy)-6-chloropyridin-2-yl)methanesulfonamide [Example 1.78.1] | 0.01 µM
Cc1nn2c3c(nc2s1)CCN(C(=O)COc1ccc(S(N)(=O)=O)cc1C)C3c1ccc(Cl)nc1F (centres unmarked) [Example 1.16.2, 4-(2-(5-(6-chloro-2-fluoropyridin-3-yl)-2-methyl-7,8-dihydro-[1,3,4]thiadiazolo[2′,3′:2,3]imidazo[4,5-c]pyridin-6(5H)-yl)-2-oxoethoxy)-3-methylbenzenesulfonamide] | 0.074 µM
CS(=O)(=O)Nc1ccc(OCC(=O)N2CCc3nc4sccn4c3C2c2ccc(Cl)cc2F)c(Cl)n1 (centres unmarked) [Example 6.4.8, N-(6-chloro-5-(2-(5-(4-chloro-2-fluorophenyl)-7,8-dihydrothiazolo[2′,3′:2,3]imidazo[4,5-c]pyridin-6(5H)-yl)-2-oxoethoxy)pyridin-2-yl)methanesulfonamide] | 0.003 µM
CCc1nc(N2CCCS2(=O)=O)ccc1OCC(=O)N1CCc2nc3sc(CF)nn3c2C1c1ccc(Cl)cc1F (centres unmarked) [Example 7.1.3, 1-(5-(4-chloro-2-fluorophenyl)-2-(fluoromethyl)-7,8-dihydro-[1,3,4]thiadiazolo[2′,3′:2,3]imidazo[4,5-c]pyridin-6(5H)-yl)-2-((6-(1,1-dioxidoisothiazolidin-2-yl)-2-ethylpyridin-3-yl)oxy)ethan-1-one] | 0.006 µM
Cc1nn2c3c(nc2s1)CCN(C(=O)COc1ccc(C(=O)N(C)C)nc1Cl)C3c1cccc(F)c1F (centres unmarked) [Example 1.62.1, 6-chloro-5-(2-(5-(2,3-difluorophenyl)-2-methyl-7,8-dihydro-[1,3,4]thiadiazolo[2′,3′:2,3]imidazo[4,5-c]pyridin-6(5H)-yl)-2-oxoethoxy)-N,N-dimethylpicolinamide] | 0.065 µM
Cc1ccc(OCC(=O)N2CCc3nc4sccn4c3C2c2nc3ccccc3s2)cc1 (centres unmarked) [Example 6.12.1, 1-(5-(benzo[d]thiazol-2-yl)-7,8-dihydrothiazolo-[2′,3′:2,3]imidazo[4,5-c]pyridin-6(5H)-yl)-2-(p-tolyloxy)ethanone] | 0.026 µM
Cc1cnc(C2c3c(nc4sc(C)nn34)CCN2C(=O)COc2ccc(C#N)cc2Cl)c(F)c1 (centres unmarked) [Example 1.31.4, 3-chloro-4-(2-(5-(3-fluoro-5-methylpyridin-2-yl)-2-methyl-7,8-dihydro-[1,3,4]thiadiazolo[2′,3′:2,3]imidazo[4,5-c]pyridin-6(5H)-yl)-2-oxoethoxy)benzonitrile] | 0.049 µM
